Measurements published in US20030219494A1, “Compositions and methods of using them” (priority 2002, published 2003).
Where two headings read alike, the source gives them in different places.

Legend:
[1] = body weight of control non-diabetic rats given dietary L-arginine; type: in vivo, rat; conditions: control non-diabetic rats after 1 wk dietary L-arginine
Description: Importantly, since diabetic rats eat twice as much as naïve control non-diabetic rats, the concentration of L-arginine in rat chow administered to control non-diabetic rats was doubled to maintain consistent L-arginine dosing between the STZ-diabetic rats and the control non-diabetic rats.

[2] = tested on: mechanical allodynia in STZ-diabetic DA rats; assay: von Frey antinociception (relief of mechanical allodynia) after single s.c. opioid in STZ-diabetic DA rats, standard chow or dietary L-arginine; conditions: for ED50: Rattus norvegicus, sc; for peak antinociception / time of decline of antinociception to baseline levels (<20% MPE) / time to peak antinociception: 3 wks post-STZ
Method: Deep and stable anaesthesia was induced with a mixture of ketamine (100 mg/kg, i.p.) and xylazine (16 mg/kg, i.p.) to facilitate insertion of a polyethylene cannula (previously filled with 0.1 ml of sterile saline) into the right common jugular vein. Jugular vein cannulae were tested for correct placement by the withdrawal of a small amount of blood. Diabetes was induced following an acute i.v. injection of streptozotocin (STZ) (85 mg/kg) in 0.1 M citrate buffer (pH 4.5) into the jugular vein.
Naïve non-diabetic rats (n=36) were used in the control experiments. Following STZ administration, benzylpenicillin (60 mg, s.c.) was administered to prevent infection and rats were monitored closely during surgical recovery. Rats were then housed singly or in pairs for period of 3 wks to 38 wks, depending upon the study cohort to which they belonged.
(§1) Multiple aliquots of these stock solutions were stored at −20° C. until required. […] Whilst under light anaesthesia with CO2/O2 (50:50%), rats received a single s.c. injection (100 μL) of one opioid or vehicle (saline) into the dorsal region of the base of the neck, using a 250 μL Hamilton syringe.
(§2) Mechanical allodynia, the distinguishing feature of diabetic neuropathic pain, was quantified using von Frey filaments. Rats were placed in a metabolic cage (20 cm×20 cm×20 cm) with a metal mesh floor and allowed to acclimatise for approximately 10 min. von Frey filaments were used to quantify the lowest mechanical threshold required for a brisk paw withdrawal reflex. The force was applied to the plantar surface of the left hindpaw and held until the filament buckled slightly. The absence of a response after 5 s prompted application of the next filament of increasing force. Filaments available for use included those that produced a buckling weight of 2, 4, 5, 6, 8, 10, 12, 14, 16, and 18 g. Filaments were calibrated daily before undertaking antinociceptive testing. […] Pre-drug (opioid or saline) responses were the mean of three readings taken ≈5 min apart. Assessment of von Frey filament responsiveness was determined at the following times post-opioid (or saline) administration: 15, 30, 45, 60, 90, 120 and 180 min.
(§3) The von Frey scores for individual rats were converted to the Percentage of the Maximum Possible Antinociceptive Effect (% MPE), according to the formula: [formula]
(§4) The mean (±SEM) percentage maximum AUC (% Max AUC) was calculated according to the following formula: [formula]
(§5) ED50 estimation was facilitated by the inclusion of theoretical maximum and minimum % Max AUC values.
This study comprised three groups of STZ-diabetic DA rats. […] Subsequent doses were chosen to facilitate construction of dose-response curves for the alleviation of tactile allodynia. Antinociception was quantified using calibrated von Frey filaments.
At 9 wks post-STZ administration, Group 1 STZ-diabetic rats received a dietary intervention of an L-arginine supplement (1 g per day) incorporated into rat chow, until the end of the 24 wk study period.
At 14 wks post-STZ administration, a dietary intervention comprising L-arginine supplementation (1 g per day in rat chow) was initiated which was continued for another 8 wks.
At 30 wks post-STZ administration, dietary L-arginine supplementation (1 g/day in rat chow) was initiated and continued for 8 wks.

[3] = tested on: tactile allodynia in STZ-diabetic DA rats; assay: baseline von Frey paw withdrawal thresholds in STZ-diabetic rats given dietary L-arginine; type: in vivo, rat
Description: Filaments were calibrated daily before undertaking antinociceptive testing.

[4] = body weight of STZ-diabetic rats given dietary L-arginine; type: in vivo, rat
Description: Group 3 STZ-diabetic rats, (n=6, 224.7±2.9 g, mean±SEM) were the same rats used in Example 1 above. […] At 30 wks post-STZ administration, dietary L-arginine supplementation (1 g/day in rat chow) was initiated and continued for 8 wks.

[5] = tested on: naïve control non-diabetic DA rats; assay: von Frey antinociception after single s.c. opioid in control non-diabetic DA rats; type: in vivo, rat; conditions: for ED50: s.c.
Method: as §1, §2, §3, §4, §5
Weight-matched naïve control DA rats received dietary L-arginine supplementation (1 g per day in rat chow) for at least 1 wk prior to acute opioid administration and concomitant antinociceptive testing. Importantly, since diabetic rats eat twice as much as naïve control non-diabetic rats, the concentration of L-arginine in rat chow administered to control non-diabetic rats was doubled to maintain consistent L-arginine dosing between the STZ-diabetic rats and the control non-diabetic rats.

naïve Dark Agouti rats = conditions: s.c., tail flick test; cited from earlier work
[6] = tested on: rats with a chronic constriction injury (CCI) of the sciatic nerve; conditions: relief of mechanical allodynia; cited from earlier work
[7] = 3 wks supplementation, 9 to 12 wks post-STZ
[8] = Group 1, 12 wks post-STZ (3 wks L-arginine)
[9] = Group 2, 18 wks post-STZ (4 wks L-arginine)
[10] = Group 2, 22 wks post-STZ (8 wks L-arginine)
[11] = Group 3, 34 wks post-STZ (4 wks L-arginine)
[12] = Group 3, 38 wks post-STZ (8 wks L-arginine)
[13] = Rattus norvegicus, sc, control naïve non-diabetic rats, standard chow, von Frey % Max AUC, read-out: Mean (±SEM) ED50
[14] = 24 wks post-STZ / full 24 wk study period, standard chow
[15] = 504 h, read-out: Mean (±SEM) ED50, STZ-diabetic rats 3 wks post-STZ, standard chow, s.c.
[16] = 1512 h, STZ-diabetic rats at 3 and 9 wks post-STZ, standard chow
[17] = 1512 h, read-out: Mean (±SEM) ED50, STZ-diabetic rats 9 wks post-STZ, standard chow (before L-arginine), s.c.
[18] = STZ-diabetic rats 12 wks post-STZ after 3 wks dietary L-arginine (1 g/day), s.c.
[19] = STZ-diabetic rats 24 wks post-STZ after 15 wks dietary L-arginine (1 g/day), s.c.

N=C(N)NCCC[C@H](N)C(=O)O [L-arginine]
mean (±SEM) body weight [1]: 236.3 g | effect of dietary L-arginine on morphine's antinociceptive efficacy [2, 7]: prevented the abolition | effect of dietary L-arginine on oxycodone potency [2, 7]: prevented the 2-fold decrease | effect of dietary L-arginine on antinociceptive potency of morphine ([2]; 4 wks supplementation (30 to 34 wks post-STZ), Group 3): partially restored | effect of dietary L-arginine on antinociceptive efficacy of s.c. morphine (6.1 mg/kg) ([2]; 4 wks supplementation, Group 2, 18 wks post-STZ): restored | effect of late-initiated dietary L-arginine on morphine efficacy ([2]; started 14 and 30 wks post-STZ (groups 2 and 3), after as little as 4 wks): restored morphine efficacy | paw withdrawal threshold ([3]; Group 1, 9 wks post-STZ (start of dietary L-arginine 1 g/day)): 6.8 (±0.3) g | paw withdrawal threshold [3, 8]: 4.3 (±0.1) g | paw withdrawal threshold ([3]; Group 1, 24 wks post-STZ (15 wks L-arginine)): 5.2 (±0.1) g | paw withdrawal threshold [3, 9]: 4.9 (±0.2) g | paw withdrawal threshold [3, 10]: 6.1 (±0.4) g | paw withdrawal threshold [3, 11]: 3.9 (±0.2) g | paw withdrawal threshold [3, 12]: 5.0 (±0.2) g | mean (±SEM) body weight [4, 8]: 229.0 (±6.0) g | mean (±SEM) body weight ([4]; Group 1, 16 wks post-STZ (7 wks L-arginine)): 218.0 (±7.2) g | mean (±SEM) body weight ([4]; Group 1, 20 wks post-STZ (11 wks L-arginine), n=6): 253.4 (±9.9) g | mean (±SEM) body weight ([4]; Group 1, 24 wks post-STZ (15 wks L-arginine), n=25): 234.5 (±5.1) g | mean (±SEM) body weight [4, 9]: 203.2 (±6.4) g | mean (±SEM) body weight [4, 10]: 220.9 (±11.6) g | mean (±SEM) body weight [4, 11]: 207.8 (±10.7) g | mean (±SEM) body weight [4, 12]: 221.7 (±11.7) g

CN1CC[C@]23c4c5ccc(O)c4O[C@H]2[C@@H](O)C=C[C@H]3[C@H]1C5 [morphine]
ED50 [5, 13]: 2.4 mg/kg | ED50 ([5]; control non-diabetic rats, dietary L-arginine 1 g/day for 1 wk): does not differ significantly | antinociceptive efficacy [2, 14]: remained completely abolished | ED50 [2, 15]: 6.1 mg/kg | ED50 [2, 16]: 6.1 ± 0.3 mg/kg | ED50 [2, 17]: 6.1 mg/kg | ED50 [2, 18]: 7 ± 0.5 mg/kg | ED50 [2, 19]: 5 ± 0.9 mg/kg | Mean (±SEM) ED50 ([2]; STZ-diabetic rats 12 wks post-STZ, standard chow, s.c.): No efficacy | Mean (±SEM) ED50 ([2]; STZ-diabetic rats 24 wks post-STZ, standard chow, s.c.): No efficacy | peak antinociception ([2]; morphine 4 mg/kg s.c.): 70 % MPE | time of decline of antinociception to baseline levels (<20% MPE) ([2]; morphine 4 mg/kg s.c.): ≤ 90 min | time to peak antinociception ([2]; morphine 4 mg/kg s.c.): ≤ 15 min | antinociceptive efficacy ([2]; morphine 6.1 mg/kg s.c., 14 wks post-STZ, before L-arginine (Group 2)): completely abolished | efficacy for the relief of mechanical allodynia ([2]; morphine 6.1 mg/kg s.c., 16 wks post-STZ, 7 wks dietary L-arginine): maintained | antinociceptive efficacy ([2]; morphine 14.2 mg/kg s.c., 12 wks post-STZ): remained completely abolished | antinociception ([2]; morphine 18 mg/kg s.c., 12 wks post-STZ): absence of antinociception | behavioural side effects ([2]; morphine 18 mg/kg s.c., STZ-diabetic rats 12 wks post-STZ (myoclonus, biting of cage)): mild neuro-excitatory behaviours | antinociceptive efficacy ([2]; morphine s.c., 24 wks post-STZ, 15 wks dietary L-arginine): maintained | potency for relief of mechanical allodynia as percent of that in control non-diabetic rats ([2]; morphine, STZ-diabetic rats, 11 wks dietary L-arginine (20 wks post-STZ)): ≈ 90%

COc1ccc2c3c1O[C@H]1C(=O)CC[C@@]4(O)[C@@H](C2)N(C)CC[C@]314 [oxycodone]
potency relative to morphine (naïve Dark Agouti rats): ≈ 3 times | ED50 ([5]; Rattus norvegicus, sc, 168 h, control non-diabetic rats, dietary L-arginine 1 g/day for 1 wk, read-out: ED50): 1 ± 0.1 mg/kg | ED50 [5, 13]: 1.2 mg/kg | potency relative to morphine ([5]; printed: at 3 and 9 wks post-STZ, s.c. route, naïve non-diabetic rats): ≈ 2 fold | antinociceptive efficacy/potency ([2]; 12 wks post-STZ, standard chow, s.c.): maintained | antinociceptive efficacy [2, 14]: maintained | ED50 [2, 15]: 2 mg/kg | ED50 [2, 16]: 2.1 ± 0.4 mg/kg | ED50 [2, 17]: 2.1 mg/kg | ED50 ([2]; 2016 h, read-out: Mean (±SEM) ED50, STZ-diabetic rats 12 wks post-STZ, standard chow, s.c.): 4.1 mg/kg | ED50 ([2]; 4032 h, read-out: Mean (±SEM) ED50, STZ-diabetic rats 24 wks post-STZ, standard chow, s.c.): 4.2 mg/kg | ED50 [2, 18]: 2 ± 0.3 mg/kg | ED50 [2, 19]: 1.8 ± 0.3 mg/kg | potency relative to morphine for alleviation of mechanical allodynia ([2]; STZ-diabetic rats 3 wks post-STZ, s.c.): ≈ 3 times | decrease in potency between 9 and 12 wks post-STZ ([2]; STZ-diabetic rats, standard chow): 2 fold | decrease in antinociceptive potency relative to control non-diabetic rats ([2]; at 12 wks post-STZ, unchanged at 24 wks, standard chow): 4 fold | rightward shift in the dose-response curve versus non-diabetic rats ([2]; by 3 wks post-STZ): ≈ 1.7 fold | decrease in potency relative to weight-matched control non-diabetic rats ([2]; by 9 wks post-STZ): ≈ 2 fold | peak antinociception ([2]; oxycodone 1.7 mg/kg s.c.): 90 % MPE | time of decline of antinociception to baseline levels (<20% MPE) ([2]; oxycodone 1.7 mg/kg s.c.): ≤ 120 min | time to peak antinociception ([2]; oxycodone 1.7 mg/kg s.c.): ≤ 30 min | % MPE AUC ([2]; oxycodone 2.0 mg/kg s.c., 9 wks post-STZ, standard chow): 108.7±13.2 % MPE-h | % MPE AUC ([2]; oxycodone 2.0 mg/kg s.c., 12 wks post-STZ, standard chow): 37.0±1.1 % MPE-h | % MPE AUC (±SEM) ([2]; oxycodone 2.0 mg/kg s.c., 20 wks post-STZ, 11 wks dietary L-arginine (Group 1)): 160.3±7.6 % MPE-h | % MPE AUC ([2]; oxycodone 2.0 mg/kg s.c., 22 wks post-STZ, 8 wks dietary L-arginine (Group 2)): 139.4±9.4 MPE-h | % MPE AUC ([2]; oxycodone 2.0 mg/kg s.c., 38 wks post-STZ, 8 wks dietary L-arginine (Group 3)): 147.0±1.9 % MPE-h | % MPE AUC ([2]; oxycodone 4.0 mg/kg s.c., 24 wks post-STZ, standard chow): 144.0±13.7 MPE-h | potency for relief of mechanical allodynia as percent of that in diabetic rats on standard chow at 9 wks post-STZ ([2]; oxycodone, 11 wks dietary L-arginine (20 wks post-STZ)): ≈ 150% | potency relative to morphine [6]: ≈ 4 times
